Assay [1] addresses T1, PRAS40 (Homo sapiens, UniProt Q96B36).
T1 construct: gene AKT1S1; His-tagged, purchased from Genscript (Nanjing); UniProt Q96B36 (human) given only for the docking receptor
The assay is described as follows: ligand fishing from Erxian decoction with immobilized PRAS40, LC-MS identification. The assay is classed as binding. The following applies: PBS-Tween, pH 7.4, eluted from Ni-NTA beads, identified from extract by MS only.

Assay [2] addresses T1, PRAS40. The assay is described as follows: isothermal titration calorimetry. It is filed as binding. The text has this:
isothermal titration calorimetry on PRAS40
In general terms: In ITC the heat of successive injections is recorded.

The mark [3] stands for this setting: read-out: Ka (M^-1) (converted).

Consider 5 compounds from paper PMC10839085, “Screening and evaluation of metabolites binding PRAS40 from Erxian decoction used to treat spinal cord injury” (Frontiers in Pharmacology, 2024).

Where two headings read alike, the source gives them in different places.

For `O=[N+]([O-])c1ccc(O)cc1` [4-nitrophenol], the “ligand fishing from Erxian decoction with immobilized PRAS40, LC-MS identificati” value (shortened to “ligand fishing from Erxian decoction”) on PRAS40 [1] is “The immobilized PRAS40 isolated indole, 4-nitrophenol, terephthalic acid”. Turning to `c1ccc2[nH]ccc2c1` [indole], the Kd at PRAS40 [2] (setting [3]) and on PRAS40 [2] (read-out: Kd) was 2620 nM each time. For `COc1cc2c(cc1OC)-c1cc3ccc(OC)c(OC)c3c[n+]1CC2` [palmatine], the Kd at PRAS40 [2] (setting [3]) is 352 nM; at PRAS40 [2] (read-out: Kd) it was 353 nM. As for `COc1cc(/C=C/C=O)cc(OC)c1O` [sinapinaldehyde], the “ligand fishing from Erxian decoction” value on PRAS40 [1] (named as PAINS by the paper) is “palmatine, sinapinaldehyde, and 3-chloroaniline as the potential ligands binding to PRAS40”. For `O=C(O)c1ccc(C(=O)O)cc1` [terephthalic acid], the “ligand fishing from Erxian decoction” value at PRAS40 [1] is on record as “The immobilized PRAS40 isolated indole, 4-nitrophenol, terephthalic acid”.
